The text below walks through data of US20260217708A1, “FUSED BENZAZEPINE DERIVATIVES FOR USE IN THE TREATMENT OF CANCER AND EPILEPSY” (UCB BIOPHARMA SRL, priority 2023, published 2026).

Assay [1] deals with T1, system Xc^− (Homo sapiens, UniProt Q9UPY5).
T1 sequence (Q9UPY5 1-501): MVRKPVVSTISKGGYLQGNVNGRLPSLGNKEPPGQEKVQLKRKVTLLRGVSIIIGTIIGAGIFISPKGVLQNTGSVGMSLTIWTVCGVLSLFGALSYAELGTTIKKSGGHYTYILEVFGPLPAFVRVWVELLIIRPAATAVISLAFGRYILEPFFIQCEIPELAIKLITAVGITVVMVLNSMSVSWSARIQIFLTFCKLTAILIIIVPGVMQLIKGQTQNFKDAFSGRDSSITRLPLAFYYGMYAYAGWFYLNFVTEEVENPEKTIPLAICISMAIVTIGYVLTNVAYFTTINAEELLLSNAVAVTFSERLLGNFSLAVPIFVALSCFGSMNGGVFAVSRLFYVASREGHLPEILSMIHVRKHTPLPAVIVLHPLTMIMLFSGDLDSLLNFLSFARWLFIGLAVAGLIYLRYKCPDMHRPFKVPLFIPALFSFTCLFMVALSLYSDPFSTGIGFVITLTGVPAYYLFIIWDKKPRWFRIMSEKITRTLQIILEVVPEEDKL
T1 sequence (P08195 1-529 partner): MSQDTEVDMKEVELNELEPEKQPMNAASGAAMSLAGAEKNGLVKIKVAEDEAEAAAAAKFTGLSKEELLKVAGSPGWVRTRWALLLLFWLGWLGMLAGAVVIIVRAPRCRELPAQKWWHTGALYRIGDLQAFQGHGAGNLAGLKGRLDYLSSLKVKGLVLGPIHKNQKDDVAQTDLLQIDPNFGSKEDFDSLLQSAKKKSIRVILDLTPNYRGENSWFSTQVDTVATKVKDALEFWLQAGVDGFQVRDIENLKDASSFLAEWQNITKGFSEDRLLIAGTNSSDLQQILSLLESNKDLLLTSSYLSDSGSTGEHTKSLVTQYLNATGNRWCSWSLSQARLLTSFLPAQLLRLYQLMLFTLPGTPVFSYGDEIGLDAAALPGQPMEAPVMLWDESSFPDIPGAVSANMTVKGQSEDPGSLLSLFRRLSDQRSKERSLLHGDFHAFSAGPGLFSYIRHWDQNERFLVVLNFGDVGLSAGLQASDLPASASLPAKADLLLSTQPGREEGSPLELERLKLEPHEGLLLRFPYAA
Kind of assay: [^14C]L-Cystine uptake assay. In kind it is cell-based. On the set-up: endogenous in cells; host or cells: H4 cells. Particulars: H4 cells, sodium-free HEPES buffer, 0.5 μM L-[14C]Cystine and 4.5 μM L-Cystine, 1 hour at 37° C.; read-out: pIC50 [^14C] L-Cystine uptake assay (converted). An excerpt:
(§1) The effect of compounds of Formula (I) on the system Xc^− functionality was examined in two independent cell assays: (i) measurement of cystine-induced glutamate release; and (ii) measurement of [^14C]L-Cystine uptake.
(§2) As described above, System Xc^−, also known as the cystine/glutamate antiporter, is an amino acid transporter that mediates the extrusion of intracellular L-glutamate outside the cell and the uptake of extracellular L-cystine into the cell.
(§3) By measuring respectively, the concentration of glutamate released outside the cell and the L-cystine uptaken in the cell, with increasing concentrations of compounds of formula (I) according to the present invention, the efficacy of said compounds to inhibit the System Xc^− function can be evaluated.
(§4) The efficacy of the compounds to inhibit system Xc^− is represented by measuring the IC50 which corresponds to the concentration of compound necessary to inhibit 50% of the signals from the two control groups; DMSO 1% and Erastin 50 μM in the respective assays. pIC50 values correspond to −log of the IC50 in Molar.
In this assay, the medium is devoid of sodium to prevent the transport of glutamate by sodium-dependent excitatory amino acid transporters (EAATs). H4 cells were plated on a 96-well CytoStar-T scintillating microplate (PerkinElmer) at 5×10^4 cells/well in the medium described above. After 1 day, cells were washed one time with the sodium-free HEPES buffer and preincubated with test compounds of Formula (I) (1% final DMSO) for 15 min. Uptake was initiated by adding 0.5 μM L-[1,2, 1′,2′-^14C]Cystine (0.02 mCi/mL, PerkinElmer, Waltham, US) and 4.5 μM L-Cystine (Sigma-Aldrich). After 1 hour at 37° C., plates were counted in a MicroBeta^2 microplate counter (PerkinElmer).

For assay [2], the target named is T1, system Xc^−. The experiment in a line: Cystine-induced glutamate release assay. It counts as cell-based. More on the design: endogenous in cells; host or cells: H4 cells. Particulars: H4 cells, sodium-free HEPES buffer, 50 μM L-Cystine, 2 hours, Amplex Red glutamate readout; read-out: pIC50 Cystine-induced glutamate release assay (converted).
Excerpt: as §1, §2, §3, §4
Measurement of cystine-induced glutamate release indicates levels of glutamate (outside of the cell) that are dependent on system Xc^− antiporter function. Upon the addition of L-Cystine to H4 cells, intracellular glutamate is counter-transported and exported in the supernatant.
In this assay, the medium is devoid of sodium to prevent the transport of glutamate by sodium-dependent excitatory amino acid transporters (EAATs). H4 cells were plated on 384-well culture plate at 1×10^4 cells/well in Dulbecco's Modified Eagle Medium (DMEM) with L-glutamine, penicillin/streptomycin and 10% fetal bovine serum (all from ThermoFisher Scientific) and incubated in a humidified CO2 incubator at 37° C. After 2 days, cells were washed 4 times with prewarmed sodium-free HEPES buffer (contents in mM: HEPES 10, KCl 5.4, CaCl2 2.5, MgCl2 1, KH2PO4 0.4, D-Glucose 5, Choline chloride 140), pH 7.4. Glutamate release was induced by addition of 50 μM of L-Cystine (Sigma-Aldrich), together with a test compound of Formula (I) at 1% final DMSO concentration. After 2 hours of incubation in the culture incubator, supernatants were transferred to a low-binding polypropylene 384-well plate to determine L-glutamate concentration using Amplex™ Red Glutamic Acid Assay Kit (ThermoFisher Scientific). Briefly, 10 μL of Amplex™ Red working solution was added to 10 μL of the supernatant, then the mixture was incubated for 30 min at 37° C. Fluorescence intensity was measured by EnVision microplate reader (PerkinElmer).

For the compound `Cc1cc2c(c(Cl)n1)-c1cccnc1N(C)C(=O)N2CC(=O)Nc1ccc(C(F)(F)F)cc1` [#126, 2-(3-chloro-5,10-dimethyl-9-oxo-4,8,10,12-tetrazatricyclo[9.4.0.0^2,7]pentadeca-1(11),2,4,6,12,14-hexaen-8-yl)-N-[4-(trifluoromethyl)phenyl]acetamide], the IC50 on system Xc^− [1] was under 15.8 nM; on system Xc^− [2], 15.8 to 39.8 nM.
On the same counts, the results for `Cc1cc2c(cc1C)N(CC(=O)Nc1ccc(C(F)(F)F)cc1)C(=O)Cc1ncccc1-2` [#23, 2-(9,10-dimethyl-6-oxo-5H-pyrido[2,3-d][1]benzazepin-7-yl)-N-[4-(trifluoromethyl)phenyl]acetamide] are 15.8 to 39.8 nM and 39.8 to 100 nM.
For `Cc1cc2c(c(F)n1)-c1ccccc1C(O)C(=O)N2CC(=O)Nc1ccc(C(F)(F)F)cc1` (centres unmarked) [#95, 2-(1-fluoro-7-hydroxy-3-methyl-6-oxo-7H-pyrido[4,3-d][3]benzazepin-5-yl)-N-[4-(trifluoromethyl)phenyl]acetamide] the same measures were 39.8 to 100 nM and 15.8 to 39.8 nM.
For `COc1nc(C)cc2c1-c1cccnc1CC(=O)N2CC(=O)Nc1ccc(C#N)cc1` [#77, N-(4-cyanophenyl)-2-(3-methoxy-5-methyl-9-oxo-4,8,12-triazatricyclo [9.4.0.0^2,7]pentadeca-1(11),2,4,6,12,14-hexaen-8-yl)acetamide] the same measures were 100 to 501 nM and 39.8 to 100 nM.
Regarding `Cc1cc2c(c(F)n1)-c1ccc(C)nc1C(C)C(=O)N2CC(=O)Nc1ccc(C(F)(F)F)cc1` (centres unmarked) [#93, 2-(3-fluoro-5,10,13-trimethyl-9-oxo-4,8,12-triazatricyclo[9.4.0.0^2,7]pentadeca-1(11),2(7),3,5,12,14-hexaen-8-yl)-N-[4-(trifluoromethyl)phenyl]acetamide], the IC50 at system Xc^− [1] is 15.8 to 39.8 nM; at system Xc^− [2], 39.8 to 100 nM.
As for `COC1C(=O)N(CC(=O)Nc2ccc(C(F)(F)F)cc2)c2cc(C)nc(Cl)c2-c2cccnc21` (centres unmarked) [#159, 2-(3-chloro-10-methoxy-5-methyl-9-oxo-4,8,12-triazatricyclo[9.4.0.0^2,7]pentadeca-1(11),2(7),3,5,12,14-hexaen-8-yl)-N-[4-(trifluoromethyl)phenyl]acetamide], the figures for the IC50 on system Xc^− [1] and at system Xc^− [2] were 15.8 to 39.8 nM and 39.8 to 100 nM, respectively.
In the case of `Cc1cc2c(c(F)n1)-c1ccnnc1C(C)C(=O)N2CC(=O)Nc1ccc(C(F)F)cc1` (single isomer, unassigned) [#257, N-[4-(difluoromethyl)phenyl]-2-[3-fluoro-5,10-dimethyl-9-oxo-4,8,12,13-tetrazatricyclo[9.4.0.0^2,7]pentadeca-1(15),2,4,6,11,13-hexaen-8-yl]acetamide], the IC50 on system Xc^− [1] and on system Xc^− [2] was 39.8 to 100 nM throughout.
On to `Cc1cc2c(c(O)n1)-c1cccnc1CC(=O)N2CC(=O)Nc1ccc(C(F)(F)F)cc1` [#76, 2-(3-hydroxy-5-methyl-9-oxo-4,8,12-triazatricyclo[9.4.0.0^2,7]pentadeca-1(11),2(7),3,5,12,14-hexaen-8-yl)-N-[4-(trifluoromethyl)phenyl]acetamide], for which the IC50 at system Xc^− [1] and on system Xc^− [2] was 100 to 501 nM each time.
Turning to `COc1ccc2c(c1)N(CC(=O)Nc1ccc(Cl)c(F)c1)C(=O)C(C)c1ncccc1-2` (centres unmarked) [#306, N-(4-chloro-3-fluoro-phenyl)-2-(9-methoxy-5-methyl-6-oxo-5H-pyrido[2,3-d][1]benzazepin-7-yl)acetamide], the IC50 at system Xc^− [1] is 39.8 to 100 nM; at system Xc^− [2], 15.8 to 39.8 nM.
For `Cc1cc2c(cn1)-c1c(Cl)cccc1CC(=O)N2CC(=O)Nc1ccc(C(F)(F)F)cc1` [#32, 2-(11-chloro-3-methyl-6-oxo-7H-pyrido[4,3-d][3]benzazepin-5-yl)-N-[4-(trifluoro-methyl)phenyl] acetamide] the same measures were 100 to 501 nM and 100 to 501 nM.
For `Cc1ccc2c(n1)CC(=O)N(CC(=O)Nc1ccc(Cl)c(F)c1)c1cc(C)c(C)cc1-2` [#4, N-(4-chloro-3-fluoro-phenyl)-2-(3,9,10-trimethyl-6-oxo-5-H-pyrido[2,3-d][1]benzazepin-7-yl)acetamide] the same measures were 100 to 501 nM and 100 to 501 nM.
On the same counts, the results for `Cc1cc2c(c(O)n1)-c1ccccc1CC(=O)N2CC(=O)Nc1ccc(C(F)(F)F)cc1` [#55, 2-(1-hydroxy-3-methyl-6-oxo-7H-pyrido[4,3-d][3]benzazepin-5-yl)-N-[4-(trifluoromethyl)phenyl]acetamide] are 100 to 501 nM and 39.8 to 100 nM.
As to `Cc1cc2c(c(F)n1)-c1ccc(F)cc1CC(=O)N2CC(=O)Nc1ccc(C(F)(F)F)cc1` [#86, 2-(1,9-difluoro-3-methyl-6-oxo-7H-pyrido[4,3-d][3]benzazepin-5-yl)-N-[4-(trifluoromethyl)phenyl]acetamide], the IC50 at system Xc^− [1] was 15.8 to 39.8 nM; at system Xc^− [2], 39.8 to 100 nM.
For `COc1nc2c(cc1C)N(CC(=O)Nc1ccc(C(F)(F)F)cc1)C(=O)C(C)c1ncccc1-2` (centres unmarked) [#109, 2-(4-methoxy-5,10-dimethyl-9-oxo-3,8,12-triazatricyclo[9.4.0.0^2,7]pentadeca-1(11),2,4,6,12,14-hexaen-8-yl)-N-[4-(trifluoromethyl)phenyl]acetamide] the same measures were 15.8 to 39.8 nM and 39.8 to 100 nM.
On the same counts, the results for `Cc1cc2c(c(C#N)n1)-c1ccccc1CC(=O)N2CC(=O)Nc1ccc(C(F)(F)F)cc1` [#61, 2-(1-cyano-3-methyl-6-oxo-7H-pyrido[4,3-d][3]benzazepin-5-yl)-N-[4-(trifluoromethyl)phenyl]acetamide] are under 15.8 nM and 15.8 to 39.8 nM.
`Cc1cc2c(c(Cl)n1)-c1cccnc1C(C)C(=O)N2CC(=O)Nc1ccc(C(F)(F)F)nc1` (single isomer, unassigned) [#228, Enantiomer (10S) or (10R) of 2-[3-chloro-5,10-dimethyl-9-oxo-4,8,12-triazatricyclo[9.4.0.0^2,7]pentadeca-1(15),2,4,6,11,13-hexaen-8-yl]-N-[6-(trifluoromethyl)-3-pyridyl]acetamide]: the IC50 on system Xc^− [1] and on system Xc^− [2] was under 15.8 nM each time.
